Measured values as given in PMC11649784, “Re-design and evaluation of diclofenac-based carborane-substituted prodrugs and their anti-cancer potential” (Scientific Reports, 2024).

Experiments:
[1] = Stability in cell culture medium by HPLC; assay type: physicochemical
Description: In a preliminary test, the stability of all compounds dissolved in the cell medium (c = 100 μM, T = [drawing 47] ) for 72 h was validated by HPLC (see Supporting Information). Cell lines were incubated with the respective compounds in a concentration range of 1.56–100 μM for 72 h, and cell viability was measured using 3-(4,5-dimethylthiazol-2-yl)-2,5-diphenyltetrazolium bromide (MTT) and crystal violet (CV) assays. […] As MTT tests gave inconsistent results, possibly due to interference of the compound with mitochondrial respiration, for the further evaluation only the CV results are considered[97],[98].
Selg et al. Supp. Information
2 Stability Tests for Compound 3
In a 1 mL Eppendorf vial, 10 μL (0.05 μmol) of a freshly prepared 5 mM stock solution of compound 3 in DMSO was mixed with 490 μL of DMEM (Dulbecco's Modified Eagle Medium) containing 10% of fetal bovine serum and stored in an incubation oven at 40 °C for a total 72 hours. After 0, 24 and 72 hours, a 50 μL sample was collected from the mixture and diluted with 250 μL acetonitrile in a 500 μL Eppendorf vial to precipitate the proteins. The mixture was vortexed for 30 s before it was centrifuged for 20 min at 15,000 min-1 and 4 °C. […]
Figure S 2. […] Samples measured at 0, 24 and 72 hours (top to bottom) including the mass spectrum (right) and integration data (bottom). […]

[2] = tested on: MC38 cells; experiment: AnnV-FITC/PI double staining, flow cytometry; assay type: cell-based, murine; details: IC50 concentration, 72 h
Description: For all flow cytometric analyses, MC38 cells were seeded overnight and then treated with the IC50 concentration of compound 3 for 72 h. The cells were harvested, washed, and stained according to the manufacturer’s instructions for each method. To determine whether the compound induces apoptosis, cells were double stained with AnnV-FITC and PI (15 μg mL^–1) for 15 min at RT in the dark. To detect caspase activity, cells were stained with the FITC-conjugated caspase inhibitor ApoStat for 30 min at [drawing 162] . To detect cell proliferation, MC38 cells were stained with CFSE (1 μM) for 10 min at [drawing 163] prior to seeding and then treated as previously described. To detect intracellular production of Reactive oxygen/nitrogen Species (ROS/RNS), MC38 cells were prestained with DHR 123 (1 [drawing 164] M) for 20 min at [drawing 165] , then seeded and exposed to an IC50 concentration of compound 3. After 72 h incubation, all samples were washed, resuspended in PBS and fluorescence intensity was analyzed using a CytoFLEX [drawing 166] flow cytometer (Beckman Coulter, Pasadena, CA, USA), while the data obtained was evaluated using the [drawing 167] software program.

stability in cell medium by HPLC ([1]; 100 μM, 72 h, compound 3: DMEM with 10% fetal bovine serum, 40 °C, 0, 24 and 72 hours): no signs of decomposition
purity (relative area of integrals) after 72 hours in culture medium ([1]; DMEM with 10% fetal bovine serum, 40 °C, 72 hours): above 95%
Substance: 1-[2-(7,8-dicarba-nido-undecaborate)]- [drawing 126] H-indolium-2-amine [compound 3]
apoptosis (AnnV-FITC/PI), in words [2]: moderate apoptotic cell accumulation
